Measured values reported in paper PMC6269873, “Substituted 3-Benzylcoumarins as Allosteric MEK1 Inhibitors: Design, Synthesis and Biological Evaluation as Antiviral Agents” (Molecules, 2013).
Read-outs that look alike come from different tables or passages of the source.

Experiments:
[1] = tested on: ERK pathway; experiment: cells; type: cell-based, Human; details: for IC50: Homo sapiens, HEK293
Method: The effects of the inhibitors on the activation of ERK pathway were determined in TPA (12-O-tetradecanoylphorbol-13-acetate)-stimulated cells using the AP-1 luciferase reporter gene assay system. Activating protein-1 (AP-1) is the nuclear transcription factor which is a heterodimeric protein downstream of MAPK composed of dimers of the Fos and Jun proteins. The stable AP-1 dimers bind to DNA recognition elements (AP-1 response elements) and mediate transcriptional induction. AP-1 controls a number of cellular events including differentiation, proliferation and apoptosis. Simultaneously, the expression of AP-1 can be regulated in response to different extracellular stimuli, such as cytokines, growth factors, stress, and bacterial and viral infections. ERK pathway is the most important mediator which is closely related to these responses. Activation of ERK pathway causes induction of fos gene, and then the product heterodimerizes with the Jun protein to form the AP-1 dimers. These newly formed heterodimers can enhance the expression of c-jun through AP-1 binding sites in the c-jun promoter. TPA can increase levels of AP-1 proteins through activation of the ERK pathway.
3.4.2. AP-1 Luciferase Reporter Gene Assay
pAP1-Luc was constructed with pGL3-basic (Promega, Madison, WI. USA) and a fragment including the AP-1 response element (2× TRE) and T7 promoter. HEK 293 cells in 96-well plates were cultured at 5% CO2 at 37 °C in DMEM containing 10% FBS. When the confluence was up to 80%, cells were transinfected with pAP1-Luc using lipofectamine 2000 (Life Technologies, Carlsbad, CA. USA). At 24 h post transinfection, individual compounds with different concentrations (5, 10, 20, 30 μM) were added into cells using three wells for each concentration used. After incubation for 1 h, TPA (50 nM) was added. The cells were harvested after 4 h and luciferase activity was measured by using luciferase assay kit (Promega) with a luminometer.

[2] = target: phosphorylated MEK1 (Homo sapiens, UniProt Q02750); experiment: MEK1 binding assay (HTRF, tracer displacement); details: for inhibition at 2 µM: read-out: % binding (2 µM); for inhibition at 20 µM: read-out: % binding (20 µM)
Method: The homogeneous time resolved fluorescence (HTRF) assay was performed on a Proxiplate-384 F plus solid back plate (Perkin Elmer, Waltham, MA. USA) with 5 nM GST tagged phosphorylated MEK1 (GST-MEK1), 2 nM europium-labeled anti-GST antibody (Eu-anti-GST), 20 nM kinase tracer 236 and test compound at a variety of concentrations. In the reaction mixture, GST-MEK1 forms a complex with the Eu-anti-GST and the tracer. Excitation of europium (the donor) using a 340-nm excitation filter results in energy transfer to the fluorophore of the tracer. This energy transfer is detected by an increase in the fluorescence emission of the tracer at 665 nm and a decrease in the fluorescence emission of europium at 615 nm. The FRET ratio was calculated by dividing the emission signal at 665 nm by the emission signal at 615 nm. A competitor compound such as a MEK inhibitor replaces the tracer from the complex and decreases the FRET ratio accordingly. The plate was incubated in dark at room temperature for 30 min before measuring the fluorescent emission of each well at 665 and 615 nm using a 340-nm excitation filter, 100-µs delay time, and 200-µs integration time, on a PHERAStar plate reader (BMG Labtech, Durham, NC, USA). […] Data shown as %Inhibition normalized to AZD6244 at 100 µM.

[3] = HTRF binding to GST tagged phosphorylated MEK1, read-out: IC50

phosphorylated MEK1, sequence (Q02750 whole entry): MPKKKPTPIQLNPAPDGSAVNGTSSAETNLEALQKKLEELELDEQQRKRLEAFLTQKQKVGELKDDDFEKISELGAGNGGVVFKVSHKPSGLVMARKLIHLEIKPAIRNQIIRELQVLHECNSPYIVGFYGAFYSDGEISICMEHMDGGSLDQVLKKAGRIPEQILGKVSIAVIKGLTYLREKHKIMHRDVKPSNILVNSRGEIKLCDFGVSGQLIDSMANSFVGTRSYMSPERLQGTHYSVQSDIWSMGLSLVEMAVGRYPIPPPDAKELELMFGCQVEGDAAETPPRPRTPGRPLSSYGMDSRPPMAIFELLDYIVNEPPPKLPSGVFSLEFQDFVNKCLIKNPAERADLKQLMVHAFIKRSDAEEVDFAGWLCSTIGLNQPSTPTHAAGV

Structure (SMILES) | IC50 [1] | melting point | IC50 [2] | inhibition at 2 µM [2] | inhibition at 20 µM [2] | IC50 [2, 3] | inhibition of ERK pathway activation (in words) [1] | binding affinity (in words) [2]
Cc1c(Cc2ccccc2)c(=O)oc2cc(OC(=O)N(C)C)c(Cl)cc12 [Compound 14, 3-Benzyl-6-chloro-4-methyl-2-oxo-2H-chromen-7-yl dimethylcarbamate] | 30.8 ± 1.4 µM | 156 to 157 °C | 0.307 µM | 66.3% | 80.8% | – | – | –
CC(=O)Oc1ccc2c(C)c(Cc3ccccc3)c(=O)oc2c1 [Compound 28, 3-Benzyl-4-methyl-2-oxo-2H-chromen-7-yl acetate] | 37.6 ± 1.1 µM | 165 to 166 °C | – | 72.2% | 96.5% | 0.52 µM | – | –
CCc1c(Cc2ccccc2)c(=O)oc2cc(OC(C)=O)ccc12 [Compound 29, 3-Benzyl-4-ethyl-2-oxo-2H-chromen-7-yl acetate] | 90.5 ± 1.83 µM | 123 to 125 °C | – | 88.7% | 102% | 0.176 µM | – | –
CC(=O)Oc1ccc2c(C)c(Cc3ccc(F)cc3)c(=O)oc2c1 [Compound 31, 3-(4-Fluorobenzyl)-4-methyl-2-oxo-2H-chromen-7-yl acetate] | 15.7 ± 1.18 µM | – | – | 72.2% | 78.2% | 0.248 µM | more efficiently than U0126 | –
CCC(=O)Oc1ccc2c(CC)c(Cc3ccccc3)c(=O)oc2c1 [Compound 36, 3-Benzyl-4-ethyl-2-oxo-2H-chromen-7-yl propionate] | 49.8 ± 1.24 µM | 124 °C | – | 81% | 87% | 0.391 µM | – | –
CCCCC(=O)Oc1ccc2c(C)c(Cc3ccc(F)cc3)c(=O)oc2c1 [Compound 53, 3-(4-Fluorobenzyl)-4-methyl-2-oxo-2H-chromen-7-yl pentanoate] | – | 83 to 84 °C | – | 34.7% | 38.3% | – | – | –
CCCCC(=O)Oc1ccc2c(CCC)c(Cc3ccc(F)cc3)c(=O)oc2c1 [Compound 54, 3-(4-Fluorobenzyl)-2-oxo-4-propyl-2H-chromen-7-yl pentanoate] | – | 68 to 70 °C | – | 11.7% | 23.9% | – | – | –
Cc1c(Cc2ccccc2)c(=O)oc2cc(OC(=O)C(C)(C)C)ccc12 [Compound 55, 3-Benzyl-4-methyl-2-oxo-2H-chromen-7-yl pivalate] | – | 157 to 158 °C | – | 14.6% | 14.8% | – | – | –
Cc1c(Cc2ccccc2)c(=O)oc2cc(OC(=O)C(C)(C)C)c(Cl)cc12 [Compound 56, 3-Benzyl-6-chloro-4-methyl-2-oxo-2H-chromen-7-yl pivalate] | – | 113 °C | – | 16.6% | 34.1% | – | – | –
CCc1c(Cc2ccccc2)c(=O)oc2cc(OC(=O)C(C)(C)C)ccc12 [Compound 57, 3-Benzyl-4-ethyl-2-oxo-2H-chromen-7-yl pivalate] | – | 105 to 106 °C | – | 6.61% | 21% | – | – | –
CCCc1c(Cc2ccccc2)c(=O)oc2cc(OC(=O)C(C)(C)C)ccc12 [Compound 58, 3-Benzyl-2-oxo-4-propyl-2H-chromen-7-yl pivalate] | – | 138 to 139 °C | – | 43.2% | 19.1% | – | – | –
CCc1c(Cc2ccc(F)cc2)c(=O)oc2cc(OC(=O)C(C)(C)C)ccc12 [Compound 59, 4-Ethyl-3-(4-fluorobenzyl)-2-oxo-2H-chromen-7-yl pivalate] | – | 103 to 104 °C | – | 45.9% | 23.4% | – | – | inactive
Cc1c(Cc2ccc(F)cc2)c(=O)oc2cc(OC(=O)C(C)(C)C)ccc12 [Compound 60, 3-(4-Fluorobenzyl)-4-methyl-2-oxo-2H-chromen-7-yl pivalate] | – | 136 to 138 °C | – | 23.7% | 20.3% | – | – | –
CCCc1c(Cc2ccc(F)cc2)c(=O)oc2cc(OC(=O)C(C)(C)C)ccc12 [Compound 61, 3-(4-Fluorobenzyl)-2-oxo-4-propyl-2H-chromen-7-yl pivalate] | – | 138 to 140 °C | – | 31.6% | 40.9% | – | – | –
Cc1c(Cc2ccccc2)c(=O)oc2cc(OC(=O)c3ccccc3)ccc12 [Compound 62, 3-Benzyl-4-methyl-2-oxo-2H-chromen-7-yl benzoate] | – | 149 to 150 °C | – | 4.07% | 31.1% | – | – | –
Cc1c(Cc2ccccc2)c(=O)oc2cc(OC(=O)c3ccccc3)c(Cl)cc12 [Compound 63, 3-Benzyl-6-chloro-4-methyl-2-oxo-2H-chromen-7-yl benzoate] | – | 133 to 135 °C | – | 33.3% | 28% | – | – | –
CCc1c(Cc2ccccc2)c(=O)oc2cc(OC(=O)c3ccccc3)ccc12 [Compound 64, 3-Benzyl-4-ethyl-2-oxo-2H-chromen-7-yl benzoate] | – | 138 °C | – | 10.1% | 21.5% | – | – | –
CCCc1c(Cc2ccccc2)c(=O)oc2cc(OC(=O)c3ccccc3)ccc12 [Compound 65, 3-Benzyl-2-oxo-4-propyl-2H-chromen-7-yl benzoate] | – | 120 °C | – | 32.6% | 37.1% | – | – | –
Cc1c(Cc2ccc(F)cc2)c(=O)oc2cc(OC(=O)c3ccccc3)ccc12 [Compound 66, 3-(4-Fluorobenzyl)-4-methyl-2-oxo-2H-chromen-7-yl benzoate] | – | 151 to 153 °C | – | 25.8% | 31% | – | – | –
CCCc1c(Cc2ccc(F)cc2)c(=O)oc2cc(OC(=O)c3ccccc3)ccc12 [Compound 68, 3-(4-Fluorobenzyl)-2-oxo-4-propyl-2H-chromen-7-yl benzoate] | – | 95 to 96 °C | – | 26.1% | 45.6% | – | – | –
Cc1ccc(S(=O)(=O)Oc2ccc3c(C)c(Cc4ccccc4)c(=O)oc3c2)cc1 [Compound 76, 3-Benzyl-4-methyl-2-oxo-2H-chromen-7-yl 4-methylbenzenesulfonate] | – | 138 to 139 °C | – | 2.87% | -2.36% | – | – | –
Cc1ccc(S(=O)(=O)Oc2cc3oc(=O)c(Cc4ccccc4)c(C)c3cc2Cl)cc1 [Compound 77, 3-Benzyl-6-chloro-4-methyl-2-oxo-2H-chromen-7-yl 4-methylbenzenesulfonate] | – | 173 to 174 °C | – | 31.7% | 29.6% | – | – | –
Cc1ccc(S(=O)(=O)Oc2ccc3c(C)c(Cc4ccc(F)cc4)c(=O)oc3c2)cc1 [Compound 81, 3-(4-Fluorobenzyl)-4-methyl-2-oxo-2H-chromen-7-yl 4-methylbenzenesulfonate] | – | 95 to 96 °C | – | 8.05% | 9.55% | – | – | –
COc1ccc2cc(Cc3ccccc3)c(=O)oc2c1 [Compound 83, 3-Benzyl-7-methoxy-2H-chromen-2-one] | – | 102 to 103 °C | – | 23% | 2.93% | – | – | –
COc1ccc2cc(Cc3ccc(F)cc3)c(=O)oc2c1 [Compound 84, 3-(4-Fluorobenzyl)-7-methoxy-2H-chromen-2-one] | – | 94 to 95 °C | – | 17.6% | 15.4% | – | – | –
COc1ccc2cc(C(=O)c3ccccc3)c(=O)oc2c1 [Compound 86, 3-benzoyl-7-methoxycoumarin] | – | 149 to 150 °C | – | 7.96% | -8.83% | – | – | –
COc1ccc2c(C#N)c(C(=O)c3ccccc3)c(=O)oc2c1 [Compound 88, 3-Benzoyl-4-cyano-7-methoxycoumarin] | – | 175 to 176 °C | – | 32.4% | 22.9% | – | – | –
COc1ccc2c(C(=O)O)c(C(=O)c3ccccc3)c(=O)oc2c1 [Compound 89, 3-Benzoyl-4-carboxy-7-methoxycoumarin] | – | 196 to 197 °C | – | 16.5% | 6.34% | – | – | –
